# In the NIST ThermoML archive (doi:10.1016/j.fluid.2016.11.031):
# ± gives the expanded uncertainty stated by the source.
# Test: molar heat capacity at constant pressure
# Details: Liquid, Flow calorimetry
compound,measurement,setting,value
C1C[C@@H]2[C@H]3CC[C@H](C3)[C@@H]2C1 [exo-tetrahydrodicyclopentadiene],molar heat capacity at constant pressure,"323.34 K, 100 kPa",219.49 ± 2.2 J/K/mol
same,molar heat capacity at constant pressure,"323.34 K, 4000 kPa",218.3 ± 2.2 J/K/mol
same,molar heat capacity at constant pressure,"323.34 K, 5020 kPa",218.14 ± 2.2 J/K/mol
same,molar heat capacity at constant pressure,"323.35 K, 3070 kPa",218.8 ± 2.2 J/K/mol
same,molar heat capacity at constant pressure,"323.35 K, 6080 kPa",217.34 ± 2.2 J/K/mol
same,molar heat capacity at constant pressure,"323.37 K, 1030 kPa",219.39 ± 2.2 J/K/mol
same,molar heat capacity at constant pressure,"323.37 K, 2050 kPa",218.99 ± 2.2 J/K/mol
same,molar heat capacity at constant pressure,"333.16 K, 3990 kPa",223.29 ± 2.3 J/K/mol
same,molar heat capacity at constant pressure,"333.17 K, 5040 kPa",223.42 ± 2.3 J/K/mol
same,molar heat capacity at constant pressure,"333.17 K, 5990 kPa",223.32 ± 2.3 J/K/mol
same,molar heat capacity at constant pressure,"333.2 K, 100 kPa",224.4 ± 2.3 J/K/mol
same,molar heat capacity at constant pressure,"333.2 K, 1070 kPa",224.39 ± 2.3 J/K/mol
same,molar heat capacity at constant pressure,"333.2 K, 3000 kPa",223.84 ± 2.3 J/K/mol
same,molar heat capacity at constant pressure,"333.21 K, 2020 kPa",224.41 ± 2.3 J/K/mol
same,molar heat capacity at constant pressure,"343.01 K, 100 kPa",230.29 ± 2.3 J/K/mol
same,molar heat capacity at constant pressure,"343.03 K, 1090 kPa",230.02 ± 2.3 J/K/mol
same,molar heat capacity at constant pressure,"343.06 K, 2070 kPa",229.6 ± 2.3 J/K/mol
same,molar heat capacity at constant pressure,"343.06 K, 3060 kPa",229 ± 2.3 J/K/mol
same,molar heat capacity at constant pressure,"343.09 K, 4000 kPa",229.5 ± 2.3 J/K/mol
same,molar heat capacity at constant pressure,"343.09 K, 5030 kPa",228.72 ± 2.3 J/K/mol
same,molar heat capacity at constant pressure,"343.09 K, 6000 kPa",229.08 ± 2.3 J/K/mol
same,molar heat capacity at constant pressure,"353.59 K, 100 kPa",234.98 ± 2.4 J/K/mol
same,molar heat capacity at constant pressure,"353.59 K, 4080 kPa",234.11 ± 2.4 J/K/mol
same,molar heat capacity at constant pressure,"353.59 K, 5070 kPa",234.17 ± 2.4 J/K/mol
same,molar heat capacity at constant pressure,"353.6 K, 6090 kPa",233.83 ± 2.4 J/K/mol
same,molar heat capacity at constant pressure,"353.61 K, 1080 kPa",234.61 ± 2.4 J/K/mol
same,molar heat capacity at constant pressure,"353.61 K, 2010 kPa",234.35 ± 2.4 J/K/mol
same,molar heat capacity at constant pressure,"353.62 K, 3070 kPa",234.12 ± 2.4 J/K/mol
same,molar heat capacity at constant pressure,"363.48 K, 100 kPa",240.37 ± 2.4 J/K/mol
same,molar heat capacity at constant pressure,"363.53 K, 1070 kPa",240.28 ± 2.4 J/K/mol
same,molar heat capacity at constant pressure,"363.53 K, 2030 kPa",240.09 ± 2.4 J/K/mol
same,molar heat capacity at constant pressure,"363.53 K, 2990 kPa",239.97 ± 2.4 J/K/mol
same,molar heat capacity at constant pressure,"363.54 K, 4080 kPa",239.88 ± 2.4 J/K/mol
same,molar heat capacity at constant pressure,"363.54 K, 5000 kPa",239.76 ± 2.4 J/K/mol
same,molar heat capacity at constant pressure,"363.55 K, 6020 kPa",239.67 ± 2.4 J/K/mol
same,molar heat capacity at constant pressure,"383.58 K, 3060 kPa",248.68 ± 2.5 J/K/mol
same,molar heat capacity at constant pressure,"383.58 K, 4010 kPa",248.49 ± 2.5 J/K/mol
same,molar heat capacity at constant pressure,"383.59 K, 5070 kPa",248.39 ± 2.5 J/K/mol
same,molar heat capacity at constant pressure,"383.6 K, 100 kPa",249.31 ± 2.5 J/K/mol
same,molar heat capacity at constant pressure,"383.6 K, 1000 kPa",248.82 ± 2.5 J/K/mol
same,molar heat capacity at constant pressure,"383.6 K, 5990 kPa",248.35 ± 2.5 J/K/mol
same,molar heat capacity at constant pressure,"383.61 K, 2020 kPa",248.8 ± 2.5 J/K/mol
same,molar heat capacity at constant pressure,"403.36 K, 100 kPa",260.34 ± 2.6 J/K/mol
same,molar heat capacity at constant pressure,"403.36 K, 1020 kPa",259.74 ± 2.6 J/K/mol
same,molar heat capacity at constant pressure,"403.37 K, 2060 kPa",259.23 ± 2.6 J/K/mol
same,molar heat capacity at constant pressure,"403.38 K, 3040 kPa",258.89 ± 2.6 J/K/mol
same,molar heat capacity at constant pressure,"403.38 K, 4010 kPa",257.41 ± 2.6 J/K/mol
same,molar heat capacity at constant pressure,"403.39 K, 5000 kPa",256.93 ± 2.6 J/K/mol
same,molar heat capacity at constant pressure,"403.4 K, 6070 kPa",256.62 ± 2.6 J/K/mol
same,molar heat capacity at constant pressure,"423.2 K, 1020 kPa",271.44 ± 2.7 J/K/mol
same,molar heat capacity at constant pressure,"423.2 K, 2050 kPa",270.28 ± 2.7 J/K/mol
same,molar heat capacity at constant pressure,"423.2 K, 3010 kPa",268.73 ± 2.7 J/K/mol
same,molar heat capacity at constant pressure,"423.21 K, 100 kPa",271.95 ± 2.8 J/K/mol
same,molar heat capacity at constant pressure,"423.25 K, 4020 kPa",267.73 ± 2.7 J/K/mol
same,molar heat capacity at constant pressure,"423.26 K, 4980 kPa",267.54 ± 2.7 J/K/mol
same,molar heat capacity at constant pressure,"423.27 K, 6000 kPa",266.96 ± 2.7 J/K/mol
same,molar heat capacity at constant pressure,"443.11 K, 3110 kPa",282.78 ± 2.9 J/K/mol
same,molar heat capacity at constant pressure,"443.13 K, 2050 kPa",283.43 ± 2.9 J/K/mol
same,molar heat capacity at constant pressure,"443.14 K, 1030 kPa",284.05 ± 2.9 J/K/mol
same,molar heat capacity at constant pressure,"443.15 K, 240 kPa",284.8 ± 2.9 J/K/mol
same,molar heat capacity at constant pressure,"443.17 K, 4060 kPa",282.05 ± 2.9 J/K/mol
same,molar heat capacity at constant pressure,"443.18 K, 6050 kPa",280.75 ± 2.8 J/K/mol
same,molar heat capacity at constant pressure,"443.19 K, 5030 kPa",281.38 ± 2.8 J/K/mol
same,molar heat capacity at constant pressure,"463.16 K, 2040 kPa",298.88 ± 3 J/K/mol
same,molar heat capacity at constant pressure,"463.17 K, 230 kPa",301.77 ± 3 J/K/mol
same,molar heat capacity at constant pressure,"463.18 K, 1060 kPa",300.31 ± 3 J/K/mol
same,molar heat capacity at constant pressure,"463.19 K, 4070 kPa",297.53 ± 3 J/K/mol
same,molar heat capacity at constant pressure,"463.2 K, 3000 kPa",299.41 ± 3 J/K/mol
same,molar heat capacity at constant pressure,"463.21 K, 5010 kPa",297.44 ± 3 J/K/mol
same,molar heat capacity at constant pressure,"463.22 K, 6020 kPa",296.56 ± 3 J/K/mol
same,molar heat capacity at constant pressure,"483.31 K, 2050 kPa",316.76 ± 3.2 J/K/mol
same,molar heat capacity at constant pressure,"483.32 K, 3040 kPa",315.54 ± 3.2 J/K/mol
same,molar heat capacity at constant pressure,"483.37 K, 4030 kPa",315.19 ± 3.2 J/K/mol
same,molar heat capacity at constant pressure,"483.37 K, 6060 kPa",314.11 ± 3.2 J/K/mol
same,molar heat capacity at constant pressure,"483.38 K, 5080 kPa",314.31 ± 3.2 J/K/mol
same,molar heat capacity at constant pressure,"483.39 K, 1020 kPa",319.24 ± 3.2 J/K/mol
same,molar heat capacity at constant pressure,"483.42 K, 470 kPa",321.27 ± 3.2 J/K/mol
same,molar heat capacity at constant pressure,"503.28 K, 1020 kPa",336.59 ± 3.4 J/K/mol
same,molar heat capacity at constant pressure,"503.28 K, 2040 kPa",334.35 ± 3.4 J/K/mol
same,molar heat capacity at constant pressure,"503.28 K, 3050 kPa",333.03 ± 3.4 J/K/mol
same,molar heat capacity at constant pressure,"503.29 K, 4090 kPa",330.6 ± 3.3 J/K/mol
same,molar heat capacity at constant pressure,"503.29 K, 5070 kPa",331.61 ± 3.4 J/K/mol
same,molar heat capacity at constant pressure,"503.3 K, 480 kPa",338.7 ± 3.4 J/K/mol
same,molar heat capacity at constant pressure,"503.3 K, 6000 kPa",331.5 ± 3.4 J/K/mol
same,molar heat capacity at constant pressure,"523.44 K, 3010 kPa",348.07 ± 3.5 J/K/mol
same,molar heat capacity at constant pressure,"523.45 K, 1030 kPa",352.98 ± 3.6 J/K/mol
same,molar heat capacity at constant pressure,"523.45 K, 2060 kPa",350.7 ± 3.5 J/K/mol
same,molar heat capacity at constant pressure,"523.47 K, 500 kPa",355.43 ± 3.6 J/K/mol
same,molar heat capacity at constant pressure,"523.49 K, 5040 kPa",345.42 ± 3.5 J/K/mol
same,molar heat capacity at constant pressure,"523.49 K, 6180 kPa",344.08 ± 3.5 J/K/mol
same,molar heat capacity at constant pressure,"523.5 K, 4000 kPa",346.42 ± 3.5 J/K/mol
